Measured values published in ChEMBL document CHEMBL1909046, “DrugMatrix in vitro pharmacology data”.

Columns and labels:
[1] = DRUGMATRIX: Platelet-Derived Growth Factor (PDGF) radioligand binding (ligand: [125I] PDGF); type: cell-based; details: nih3t3; Not Active = under 50% inhibition at 10 µM
[2] = target: T1, Glucocorticoid receptor (Homo sapiens, UniProt P04150); details: hela s3; note: in other assays of this panel Not Active means under 50% inhibition at 10 µM
T1 sequence (P04150 whole entry): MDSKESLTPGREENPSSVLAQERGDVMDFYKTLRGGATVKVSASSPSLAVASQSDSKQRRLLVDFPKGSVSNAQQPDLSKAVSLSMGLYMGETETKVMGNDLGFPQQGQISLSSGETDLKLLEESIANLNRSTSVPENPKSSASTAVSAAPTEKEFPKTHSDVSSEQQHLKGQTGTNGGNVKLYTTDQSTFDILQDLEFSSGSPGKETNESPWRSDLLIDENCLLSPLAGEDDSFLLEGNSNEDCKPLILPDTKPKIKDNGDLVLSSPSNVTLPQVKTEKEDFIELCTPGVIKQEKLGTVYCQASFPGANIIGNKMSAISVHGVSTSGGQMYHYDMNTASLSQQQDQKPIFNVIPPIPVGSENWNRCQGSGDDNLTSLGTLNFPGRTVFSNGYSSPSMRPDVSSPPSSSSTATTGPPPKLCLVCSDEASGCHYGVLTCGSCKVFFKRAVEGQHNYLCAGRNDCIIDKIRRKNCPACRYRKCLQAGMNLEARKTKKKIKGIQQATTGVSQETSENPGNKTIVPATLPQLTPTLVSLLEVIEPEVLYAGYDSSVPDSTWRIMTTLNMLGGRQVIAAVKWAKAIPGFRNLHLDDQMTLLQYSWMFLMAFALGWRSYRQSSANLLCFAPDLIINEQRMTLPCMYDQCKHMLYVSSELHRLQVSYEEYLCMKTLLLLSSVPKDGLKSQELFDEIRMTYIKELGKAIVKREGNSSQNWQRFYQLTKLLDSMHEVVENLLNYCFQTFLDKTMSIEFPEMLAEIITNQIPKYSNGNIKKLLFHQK

[3] = target: Beta-2 adrenergic receptor (Homo sapiens, UniProt P07550); test: DRUGMATRIX: Adrenergic beta2 radioligand binding (ligand: [3H] CGP-12177); type: cell membranes, CHO, Membrane; details: Not Active = under 50% inhibition at 10 µM
[4] = DRUGMATRIX: Potassium Channel [KATP] radioligand binding (ligand: [3H] Glyburide); type: cell membranes, Membrane; details: hit-t15; Not Active = under 50% inhibition at 10 µM
[5] = target: T2, Thromboxane-A synthase (Homo sapiens, UniProt P24557); test: biochemical; type: tissue-based, Platelet;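 note: enzyme inhibition assay with PGH2 supplied as substrate; in other assays of this panel Not Active means under 50% inhibition at 10 µM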
T2 sequence (P24557 whole entry): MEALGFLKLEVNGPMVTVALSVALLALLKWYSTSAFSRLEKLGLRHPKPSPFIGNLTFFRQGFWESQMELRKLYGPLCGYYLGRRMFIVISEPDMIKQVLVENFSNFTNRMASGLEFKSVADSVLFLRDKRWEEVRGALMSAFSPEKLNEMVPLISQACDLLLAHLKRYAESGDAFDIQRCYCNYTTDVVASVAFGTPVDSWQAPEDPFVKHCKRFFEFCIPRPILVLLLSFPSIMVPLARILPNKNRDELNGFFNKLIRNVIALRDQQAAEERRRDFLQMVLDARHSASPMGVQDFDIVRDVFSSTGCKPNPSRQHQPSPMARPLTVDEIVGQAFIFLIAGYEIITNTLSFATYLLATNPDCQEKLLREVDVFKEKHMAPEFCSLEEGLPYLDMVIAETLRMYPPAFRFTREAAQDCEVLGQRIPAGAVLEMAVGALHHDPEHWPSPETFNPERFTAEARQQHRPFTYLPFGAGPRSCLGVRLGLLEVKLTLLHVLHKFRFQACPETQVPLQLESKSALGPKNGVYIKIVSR

[6] = target: Kappa-type opioid receptor (Homo sapiens, UniProt P41145); test: DRUGMATRIX: Opiate kappa (OP2, KOP) radioligand binding (ligand: [3H] Diprenorphine); type: cell membranes, HEK293, Membrane; details: hek293; Not Active = under 50% inhibition at 10 µM
[7] = DRUGMATRIX: Glutamate, NMDA, Phencyclidine radioligand binding (ligand: [3H] TCP); type: cell membranes, Rattus norvegicus, Wistar, Cerebral cortex, Membrane; details: Not Active = under 50% inhibition at 10 µM
[8] = DRUGMATRIX: GABAA, Chloride Channel, TBOB radioligand binding (ligand: [3H] TBOB); type: cell membranes, Rattus norvegicus, Wistar, Cerebral cortex, Membrane; details: Not Active = under 50% inhibition at 10 µM

Chain of Kappa-type opioid receptor (P41145 whole entry): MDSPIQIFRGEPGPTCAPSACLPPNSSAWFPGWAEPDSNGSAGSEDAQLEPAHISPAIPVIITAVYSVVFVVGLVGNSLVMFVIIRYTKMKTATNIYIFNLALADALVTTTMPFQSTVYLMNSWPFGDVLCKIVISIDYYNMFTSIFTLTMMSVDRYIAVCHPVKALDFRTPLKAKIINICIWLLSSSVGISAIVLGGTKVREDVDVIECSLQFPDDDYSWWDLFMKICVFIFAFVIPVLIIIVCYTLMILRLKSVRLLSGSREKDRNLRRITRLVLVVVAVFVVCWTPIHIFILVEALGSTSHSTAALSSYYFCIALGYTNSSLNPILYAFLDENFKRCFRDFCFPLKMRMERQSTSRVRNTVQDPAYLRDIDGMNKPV
Chain of Beta-2 adrenergic receptor (P07550 whole entry): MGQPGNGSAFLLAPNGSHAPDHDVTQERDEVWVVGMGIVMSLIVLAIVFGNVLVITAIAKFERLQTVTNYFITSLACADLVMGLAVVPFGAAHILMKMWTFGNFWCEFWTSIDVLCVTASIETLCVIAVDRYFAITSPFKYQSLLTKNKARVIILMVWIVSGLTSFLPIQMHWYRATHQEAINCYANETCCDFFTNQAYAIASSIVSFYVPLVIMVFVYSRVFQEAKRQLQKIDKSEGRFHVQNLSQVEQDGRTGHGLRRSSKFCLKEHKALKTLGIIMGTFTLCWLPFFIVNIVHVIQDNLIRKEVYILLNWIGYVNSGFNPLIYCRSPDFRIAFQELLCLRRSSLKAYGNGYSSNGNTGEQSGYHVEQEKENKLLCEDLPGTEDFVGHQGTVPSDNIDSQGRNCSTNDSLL

In the case of `Nc1nc2c(c(=O)[nH]1)N(C=O)C(CNc1ccc(C(=O)N[C@@H](CCC(=O)O)C(=O)O)cc1)CN2` (some centres undefined) [LEUCOVORIN], the IC50 [1] is reported as “Not Active”, the Ki [1] is reported as “Not Active” and the IC50 [2] is reported as “Not Active”. The IC50 ([3]; cho) was “Not Active”, the IC50 [4] was “Not Active” and the Ki [4] was “Not Active”. For the same molecule, the IC50 ([5]; platelet) was “Not Active”, the IC50 [6] was “Not Active” and the IC50 [7] was “Not Active”. The Ki [7] was “Not Active”, the IC50 [8] was “Not Active” and the Ki [8] was “Not Active”.
With `C[C@@H](O)[C@H]1C(=O)N2C(C(=O)O)=C(S[C@@H]3CN[C@H](C(=O)N(C)C)C3)[C@H](C)[C@H]12` [MEROPENEM] the IC50 [1] was “Not Active”, the Ki [1] was “Not Active” and the IC50 [2] was “Not Active”. The IC50 ([3]; cho) was “Not Active”, the IC50 [4] was “Not Active” and the Ki [4] was “Not Active”. The IC50 ([5]; platelet) was “Not Active”, the IC50 [6] was “Not Active” and the IC50 [7] was “Not Active”. The Ki [7] was “Not Active”, the IC50 [8] was “Not Active” and the Ki [8] was “Not Active”.
For `Cc1cn([C@H]2C[C@H](N=[N+]=[N-])[C@@H](CO)O2)c(=O)[nH]c1=O` [ZIDOVUDINE], the IC50 [1] was “Not Active”, the Ki [1] was “Not Active” and the IC50 [2] was “Not Active”. The IC50 ([3]; cho) was “Not Active”, the IC50 [4] was “Not Active” and the Ki [4] was “Not Active”. The IC50 ([5]; platelet) was “Not Active”, the IC50 [6] was “Not Active” and the IC50 [7] was “Not Active”. The Ki [7] was “Not Active”, the IC50 [8] was “Not Active” and the Ki [8] was “Not Active”.
For `COc1cc(N)nc2[nH]c(-c3ccc(F)cc3)c(-c3ccncc3)c12`, the IC50 [1] was “Not Active”, the Ki [1] was “Not Active” and the IC50 [2] was “Not Active”. For the same molecule, the IC50 ([3]; cho) was “Not Active”, the IC50 [4] was “Not Active” and the Ki [4] was “Not Active”. For the same molecule, the IC50 ([5]; platelet) was “Not Active”, the IC50 [6] was “Not Active” and the IC50 [7] was “Not Active”. For the same molecule, the Ki [7] was “Not Active”, the IC50 [8] was “Not Active” and the Ki [8] was “Not Active”.
With `CNS(=O)(=O)Cc1ccc2[nH]cc(CCN(C)C)c2c1` the IC50 [1] was “Not Active”, the Ki [1] was “Not Active” and the IC50 [2] was “Not Active”. For the same molecule, the IC50 ([3]; cho) was “Not Active”, the IC50 [4] was “Not Active” and the Ki [4] was “Not Active”. The IC50 ([5]; platelet) was “Not Active”, the IC50 [6] was “Not Active” and the IC50 [7] was “Not Active”. The Ki [7] was “Not Active”, the IC50 [8] was “Not Active” and the Ki [8] was “Not Active”.
For `Nc1ccc(S(=O)(=O)Nc2nccs2)cc1` [SULFATHIAZOLE], the IC50 [1] was “Not Active”, the Ki [1] was “Not Active” and the IC50 [2] was “Not Active”. For the same molecule, the IC50 ([3]; cho) was “Not Active”, the IC50 [4] was “Not Active” and the Ki [4] was “Not Active”. The IC50 ([5]; platelet) was “Not Active”, the IC50 [6] was “Not Active” and the IC50 [7] was “Not Active”. The Ki [7] was “Not Active”, the IC50 [8] was “Not Active” and the Ki [8] was “Not Active”.
With `COc1ccc(CN2CCNCC2)c(OC)c1OC` [TRIMETAZIDINE] the IC50 [1] was “Not Active”, the Ki [1] was “Not Active” and the IC50 [2] was “Not Active”. The IC50 ([3]; cho) was “Not Active”, the IC50 [4] was “Not Active” and the Ki [4] was “Not Active”. The IC50 ([5]; platelet) was “Not Active”, the IC50 [6] was “Not Active” and the IC50 [7] was “Not Active”. The Ki [7] was “Not Active”, the IC50 [8] was “Not Active” and the Ki [8] was “Not Active”.
With `COc1cc(C(=O)NS(=O)(=O)c2ccccc2C)ccc1Cc1cn(C)c2ccc(NC(=O)OC3CCCC3)cc12` [ZAFIRLUKAST] the IC50 [1] was “Not Active”, the Ki [1] was “Not Active” and the IC50 [2] was “Not Active”. For the same molecule, the IC50 ([3]; cho) was “Not Active”, the IC50 [4] was “Not Active” and the Ki [4] was “Not Active”. The IC50 ([5]; read-out: IC50) was 3.81 µM, the IC50 [6] was “Not Active” and the IC50 [7] was “Not Active”. The Ki [7] was “Not Active”, the IC50 [8] was “Not Active” and the Ki [8] was “Not Active”.
In the case of `CCCc1nn(C)c2c(=O)[nH]c(-c3cc(S(=O)(=O)N4CCN(C)CC4)ccc3OCC)nc12`, the IC50 [1] is reported as “Not Active”, the Ki [1] is reported as “Not Active” and the IC50 [2] is reported as “Not Active”. For the same molecule, the IC50 ([3]; cho) was “Not Active”, the IC50 [4] was “Not Active” and the Ki [4] was “Not Active”. For the same molecule, the IC50 ([5]; platelet) was “Not Active”, the IC50 [6] was “Not Active” and the IC50 [7] was “Not Active”. The Ki [7] was “Not Active”, the IC50 [8] was “Not Active” and the Ki [8] was “Not Active”.
With `CN[C@@H]1[C@H](O)[C@H](NC)[C@H]2O[C@@]3(O)C(=O)C[C@@H](C)O[C@H]3O[C@@H]2[C@H]1O` [SPECTINOMYCIN] the IC50 [1] was “Not Active”, the Ki [1] was “Not Active” and the IC50 [2] was “Not Active”. For the same molecule, the IC50 ([3]; cho) was “Not Active”, the IC50 [4] was “Not Active” and the Ki [4] was “Not Active”. For the same molecule, the IC50 ([5]; platelet) was “Not Active”, the IC50 [6] was “Not Active” and the IC50 [7] was “Not Active”. The Ki [7] was “Not Active”, the IC50 [8] was “Not Active” and the Ki [8] was “Not Active”.
In the case of `O=P(O)(O)C(O)(Cc1cccnc1)P(=O)(O)O` [RISEDRONIC ACID], the IC50 [1] is reported as “Not Active”, the Ki [1] is reported as “Not Active” and the IC50 [2] is reported as “Not Active”. For the same molecule, the IC50 ([3]; cho) was “Not Active”, the IC50 [4] was “Not Active” and the Ki [4] was “Not Active”. For the same molecule, the IC50 ([5]; platelet) was “Not Active”, the IC50 [6] was “Not Active” and the IC50 [7] was “Not Active”. For the same molecule, the Ki [7] was “Not Active”, the IC50 [8] was “Not Active” and the Ki [8] was “Not Active”.
With `COc1ccc(/C=C/C(=O)Nc2ccccc2C(=O)O)cc1OC` the IC50 [1] was “Not Active”, the Ki [1] was “Not Active” and the IC50 [2] was “Not Active”. For the same molecule, the IC50 ([3]; cho) was “Not Active”, the IC50 [4] was “Not Active” and the Ki [4] was “Not Active”. For the same molecule, the IC50 ([5]; platelet) was “Not Active”, the IC50 [6] was “Not Active” and the IC50 [7] was “Not Active”. The Ki [7] was “Not Active”, the IC50 [8] was “Not Active” and the Ki [8] was “Not Active”.
In the case of `C#CCN(C)[C@H](C)Cc1ccccc1` [SELEGILINE], the IC50 [1] is reported as “Not Active”, the Ki [1] is reported as “Not Active” and the IC50 [2] is reported as “Not Active”. For the same molecule, the IC50 ([3]; cho) was “Not Active”, the IC50 [4] was “Not Active” and the Ki [4] was “Not Active”. The IC50 ([5]; platelet) was “Not Active”, the IC50 [6] was “Not Active” and the IC50 [7] was “Not Active”. The Ki [7] was “Not Active”, the IC50 [8] was “Not Active” and the Ki [8] was “Not Active”.
In the case of `C[C@@H]1C[C@H]2[C@@H]3CCC4=CC(=O)C=C[C@]4(C)C3=CC[C@]2(C)[C@H]1C(=O)CN1CCN(c2cc(N3CCCC3)nc(N3CCCC3)n2)CC1` [TIRILAZAD], the IC50 [1] is reported as “Not Active”, the Ki [1] is reported as “Not Active” and the IC50 [2] is reported as “Not Active”. For the same molecule, the IC50 ([3]; read-out: IC50) was 22.7 µM, the Ki ([3]; read-out: Ki) was 15.6 µM and the IC50 [4] was “Not Active”. For the same molecule, the Ki [4] was “Not Active”, the IC50 ([5]; platelet) was “Not Active” and the IC50 [6] was “Not Active”. The IC50 [7] was “Not Active”, the Ki [7] was “Not Active” and the IC50 [8] was “Not Active”. The Ki [8] was “Not Active”.
